Test results published in PubChem BioAssay AID1963983 (Molecular Pharmacology Branch, DTP, NCI, 2024).
Values belong to the compound of their own block, whether it stands above or below them.

System: 186277-243-T-J2-PDC multi-cell spheroid viability
Assay: Anticancer human tumor 186277-243-T-J2-PDC patient-derived colon adenocarcinoma cell line growth inhibition [PI3K]
Conditions: for IC50: curve of first compound; for viability, T/C: stronger effect = lower value
In short: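 Complex 3D spheroids (cancer cells + endothelial HUVEC + mesenchymal stem cells); drug pairs of targeted agent x inavolisib/alpelisib/duvelisib/copanlisib; half-log series from ~Cmax, max 10 microM if Cmax unknown; endpoint viability.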

[1] = second compound 0.0316 µM, first compound 0.0316 µM
[2] = second compound 0.0316 µM, first compound 0.1 µM
[3] = second compound 0.0316 µM, first compound 0.316 µM
[4] = second compound 0.0316 µM, first compound 1 µM
[5] = second compound 0.0316 µM, first compound 3.16 µM
[6] = second compound 0.0316 µM, first compound 10 µM
[7] = second compound 0.1 µM, first compound 0.0316 µM
[8] = second compound 0.1 µM, first compound 0.1 µM
[9] = second compound 0.1 µM, first compound 0.316 µM
[10] = second compound 0.1 µM, first compound 1 µM
[11] = second compound 0.1 µM, first compound 3.16 µM
[12] = second compound 0.1 µM, first compound 10 µM
[13] = second compound 0.316 µM, first compound 0.0316 µM
[14] = second compound 0.316 µM, first compound 0.1 µM
[15] = second compound 0.316 µM, first compound 0.316 µM
[16] = second compound 0.316 µM, first compound 1 µM
[17] = second compound 0.316 µM, first compound 3.16 µM
[18] = second compound 0.316 µM, first compound 10 µM
[19] = second compound 1 µM, first compound 0.0316 µM
[20] = second compound 1 µM, first compound 0.1 µM
[21] = second compound 1 µM, first compound 0.316 µM
[22] = second compound 1 µM, first compound 1 µM
[23] = second compound 1 µM, first compound 3.16 µM
[24] = second compound 1 µM, first compound 10 µM
[25] = second compound 3.16 µM, first compound 0.0316 µM
[26] = second compound 3.16 µM, first compound 0.1 µM
[27] = second compound 3.16 µM, first compound 0.316 µM
[28] = second compound 3.16 µM, first compound 1 µM
[29] = second compound 3.16 µM, first compound 3.16 µM
[30] = second compound 3.16 µM, first compound 10 µM
[31] = second compound 10 µM, first compound 0.0316 µM
[32] = second compound 10 µM, first compound 0.1 µM
[33] = second compound 10 µM, first compound 0.316 µM
[34] = second compound 10 µM, first compound 1 µM
[35] = second compound 10 µM, first compound 3.16 µM
[36] = second compound 10 µM, first compound 10 µM
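Also: spheroids exposed to compounds for seven days before viability reading.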
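For viability, T/C in this document: 100% = DMSO vehicle control viability.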

SMILES: C=CC(=O)N1CCN(c2nc(=O)n(-c3c(C)ccnc3C(C)C)c3nc(-c4c(O)cccc4F)c(F)cc23)C(C)C1 (stereo not given) + Cc1nc(NC(=O)N2CCCC2C(N)=O)sc1-c1ccnc(C(C)(C)C(F)(F)F)c1
IC50 (second compound 0.0316 µM): > 10000 nM
IC50 (second compound 0.1 µM): > 10000 nM
IC50 (second compound 0.316 µM): > 10000 nM
IC50 (second compound 1 µM): > 10000 nM
IC50 (second compound 3.16 µM): 605 nM
IC50 (second compound 10 µM): < 31.6 nM
viability, T/C [1]: 83.7%
viability, T/C [2]: 108%
viability, T/C [3]: 105%
viability, T/C [4]: 88.1%
viability, T/C [5]: 100%
viability, T/C [6]: 94.8%
viability, T/C [7]: 102%
viability, T/C [8]: 99.2%
viability, T/C [9]: 106%
viability, T/C [10]: 95.6%
viability, T/C [11]: 92%
viability, T/C [12]: 103%
viability, T/C [13]: 108%
viability, T/C [14]: 107%
viability, T/C [15]: 96.6%
viability, T/C [16]: 104%
viability, T/C [17]: 86.9%
viability, T/C [18]: 85%
viability, T/C [19]: 93.4%
viability, T/C [20]: 102%
viability, T/C [21]: 87.6%
viability, T/C [22]: 94.5%
viability, T/C [23]: 80%
viability, T/C [24]: 57.5%
viability, T/C [25]: 61.6%
viability, T/C [26]: 51.9%
viability, T/C [27]: 46.5%
viability, T/C [28]: 52.7%
viability, T/C [29]: 41.1%
viability, T/C [30]: 26.3%
viability, T/C [31]: 11.1%
viability, T/C [32]: 12.8%
viability, T/C [33]: 14.5%
viability, T/C [34]: 9.26%
viability, T/C [35]: 10.8%
viability, T/C [36]: 13.2%

SMILES: CC(Cn1ccc(-c2ccc(C#N)c(Cl)c2)n1)NC(=O)c1cc(C(C)O)[nH]n1 (stereo not given) + Cc1nc(NC(=O)N2CCCC2C(N)=O)sc1-c1ccnc(C(C)(C)C(F)(F)F)c1
IC50 (second compound 0.0316 µM): > 10000 nM
IC50 (second compound 0.1 µM): > 10000 nM
IC50 (second compound 0.316 µM): > 10000 nM
IC50 (second compound 1 µM): > 10000 nM
IC50 (second compound 3.16 µM): > 10000 nM
IC50 (second compound 10 µM): < 31.6 nM
viability, T/C [1]: 99.2%
viability, T/C [2]: 96.7%
viability, T/C [3]: 98.5%
viability, T/C [4]: 93%
viability, T/C [5]: 116%
viability, T/C [6]: 107%
viability, T/C [7]: 112%
viability, T/C [8]: 103%
viability, T/C [9]: 88.6%
viability, T/C [10]: 109%
viability, T/C [11]: 107%
viability, T/C [12]: 122%
viability, T/C [13]: 99.7%
viability, T/C [14]: 97.6%
viability, T/C [15]: 103%
viability, T/C [16]: 116%
viability, T/C [17]: 105%
viability, T/C [18]: 97.5%
viability, T/C [19]: 103%
viability, T/C [20]: 92.8%
viability, T/C [21]: 86%
viability, T/C [22]: 97.9%
viability, T/C [23]: 86.8%
viability, T/C [24]: 88.3%
viability, T/C [25]: 56.5%
viability, T/C [26]: 60.2%
viability, T/C [27]: 54.2%
viability, T/C [28]: 58.9%
viability, T/C [29]: 50.7%
viability, T/C [30]: 54.8%
viability, T/C [31]: 21.6%
viability, T/C [32]: 14.2%
viability, T/C [33]: 18.5%
viability, T/C [34]: 17.1%
viability, T/C [35]: 15.8%
viability, T/C [36]: 12.7%

SMILES: CC1(C)CCC(Nc2ncc(C(F)(F)F)c(-c3c[nH]c4c(P(C)(C)=O)c(C#N)ccc34)n2)CN1 (stereo not given) + Cc1nc(NC(=O)N2CCCC2C(N)=O)sc1-c1ccnc(C(C)(C)C(F)(F)F)c1
IC50 (second compound 0.0316 µM): 3560 nM
IC50 (second compound 0.1 µM): 4030 nM
IC50 (second compound 0.316 µM): 2310 nM
IC50 (second compound 1 µM): 541 nM
IC50 (second compound 3.16 µM): < 31.6 nM
IC50 (second compound 10 µM): < 31.6 nM
viability, T/C [1]: 76.1%
viability, T/C [2]: 55.9%
viability, T/C [3]: 57.9%
viability, T/C [4]: 61.4%
viability, T/C [5]: 55.8%
viability, T/C [6]: 0.33%
viability, T/C [7]: 81.5%
viability, T/C [8]: 54.2%
viability, T/C [9]: 56.7%
viability, T/C [10]: 59%
viability, T/C [11]: 65%
viability, T/C [12]: 0.22%
viability, T/C [13]: 77%
viability, T/C [14]: 65.4%
viability, T/C [15]: 55.4%
viability, T/C [16]: 60.7%
viability, T/C [17]: 48.7%
viability, T/C [18]: 0.44%
viability, T/C [19]: 63.4%
viability, T/C [20]: 57.9%
viability, T/C [21]: 49.5%
viability, T/C [22]: 49.2%
viability, T/C [23]: 28.3%
viability, T/C [24]: 0.27%
viability, T/C [25]: 31%
viability, T/C [26]: 34.3%
viability, T/C [27]: 21.6%
viability, T/C [28]: 29.4%
viability, T/C [29]: 8.8%
viability, T/C [30]: 0.65%
viability, T/C [31]: 7.49%
viability, T/C [32]: 7.95%
viability, T/C [33]: 8.74%
viability, T/C [34]: 4.41%
viability, T/C [35]: 5.08%
viability, T/C [36]: 1.35%

These reach a lower IC50 (second compound 0.0316 µM). Values come first.

IC50 (second compound 0.0316 µM): 1840 nM
IC50 (second compound 0.1 µM): 1190 nM
IC50 (second compound 0.316 µM): 670 nM
IC50 (second compound 1 µM): 152 nM
IC50 (second compound 3.16 µM): < 31.6 nM
IC50 (second compound 10 µM): < 31.6 nM
SMILES: Cn1nccc1Nc1nccc(-c2ccn(C(CO)c3ccc(Cl)c(F)c3)c(=O)c2)n1 (stereo not given) + Cc1nc(NC(=O)N2CCCC2C(N)=O)sc1-c1ccnc(C(C)(C)C(F)(F)F)c1
viability, T/C [1]: 89%
viability, T/C [2]: 104%
viability, T/C [3]: 117%
viability, T/C [4]: 71.3%
viability, T/C [5]: 34.2%
viability, T/C [6]: 18.5%
viability, T/C [7]: 91.8%
viability, T/C [8]: 108%
viability, T/C [9]: 99.5%
viability, T/C [10]: 53.8%
viability, T/C [11]: 30.9%
viability, T/C [12]: 22.5%
viability, T/C [13]: 105%
viability, T/C [14]: 100%
viability, T/C [15]: 76.2%
viability, T/C [16]: 34.8%
viability, T/C [17]: 20.5%
viability, T/C [18]: 9.74%
viability, T/C [19]: 94.9%
viability, T/C [20]: 61.1%
viability, T/C [21]: 30.9%
viability, T/C [22]: 13.9%
viability, T/C [23]: 14%
viability, T/C [24]: 6.14%
viability, T/C [25]: 47.4%
viability, T/C [26]: 29.6%
viability, T/C [27]: 15%
viability, T/C [28]: 5.96%
viability, T/C [29]: 8.12%
viability, T/C [30]: 2.21%
viability, T/C [31]: 9.88%
viability, T/C [32]: 9.03%
viability, T/C [33]: 8.27%
viability, T/C [34]: 8.15%
viability, T/C [35]: 1.39%
viability, T/C [36]: 2.02%

IC50 (second compound 0.0316 µM): 74.4 nM
IC50 (second compound 0.1 µM): 46.8 nM
IC50 (second compound 0.316 µM): < 31.6 nM
IC50 (second compound 1 µM): < 31.6 nM
IC50 (second compound 3.16 µM): < 31.6 nM
IC50 (second compound 10 µM): < 31.6 nM
SMILES: C#Cc1c(F)ccc2cc(O)cc(-c3ncc4c(N5CC6CCC(C5)N6)nc(OCC56CCCN5CC(F)C6)nc4c3F)c12 (stereo not given) + Cc1nc(NC(=O)N2CCCC2C(N)=O)sc1-c1ccnc(C(C)(C)C(F)(F)F)c1
viability, T/C [1]: 84.8%
viability, T/C [2]: 37.5%
viability, T/C [3]: 20%
viability, T/C [4]: 13.5%
viability, T/C [5]: 10.9%
viability, T/C [6]: 9.63%
viability, T/C [7]: 60.6%
viability, T/C [8]: 29.4%
viability, T/C [9]: 15.1%
viability, T/C [10]: 11.4%
viability, T/C [11]: 8.35%
viability, T/C [12]: 7.01%
viability, T/C [13]: 30.4%
viability, T/C [14]: 15.5%
viability, T/C [15]: 7.34%
viability, T/C [16]: 12.6%
viability, T/C [17]: 6.32%
viability, T/C [18]: 6.56%
viability, T/C [19]: 17.2%
viability, T/C [20]: 9.55%
viability, T/C [21]: 10.3%
viability, T/C [22]: 6.06%
viability, T/C [23]: 4.61%
viability, T/C [24]: 1.79%
viability, T/C [25]: 12.9%
viability, T/C [26]: 5.57%
viability, T/C [27]: 3.63%
viability, T/C [28]: 4.54%
viability, T/C [29]: 3.29%
viability, T/C [30]: 1.25%
viability, T/C [31]: 3.63%
viability, T/C [32]: 3.77%
viability, T/C [33]: 2.79%
viability, T/C [34]: 2%
viability, T/C [35]: 0.83%
viability, T/C [36]: 0.22%
